Measured values from BindingDB's records for doi:10.1021/jm00078a018 (Merck Research Laboratories, 1994).

assay: Inhibition of binding of [125I]-CCK-8 to the cholecystokinin type B receptor

| SMILES | IC50 [µM] |
| --- | --- |
| O=C(Nc1ccc(Cl)cc1)NC1N=C(c2ccccc2)c2ccccc2N(CC(=O)N2CCCC2)C1=O (stereo not given) | 0.0016 |
| CN1C(=O)[C@H](NC(=O)c2ccc(C(F)(F)F)cc2)N=C(c2ccccc2)c2ccccc21 | 3.3 |
| O=C(Nc1ccc(Cl)cc1)N[C@H]1N=C(c2ccccc2)c2ccccc2N(CC(=O)N2CCCC2)C1=O | 0.013 |
| CN1C(=O)[C@H](NC(=O)Nc2cccc(I)c2)N=C(c2ccccc2)c2ccccc21 | 0.0069 |
| CN1C(=O)[C@@H](NC(=O)c2ccc(C(F)(F)F)cc2)N=C(c2ccccc2)c2ccccc21 | 4.6 |
| COc1cccc(NC(=O)N[C@@H]2N=C(c3ccccc3)c3ccccc3N(C)C2=O)c1 | 0.0022 |
| CN1C(=O)[C@H](NC(=O)Nc2cccc(N)c2)N=C(c2ccccc2)c2ccccc21 | 0.033 |
| CN1C(=O)[C@H](NC(=O)NCc2cccc(O)c2)N=C(c2ccccc2)c2ccccc21 | 0.019 |
| CC(=O)Oc1cccc(NC(=O)N[C@@H]2N=C(c3ccccc3)c3ccccc3N(C)C2=O)c1 | 0.5 |
| CN1C(=O)[C@H](NC(=O)Nc2cccc(O)c2)N=C(c2ccccc2)c2ccccc21 | 0.015 |
| C=Cc1cccc(NC(=O)N[C@@H]2N=C(c3ccccc3)c3ccccc3N(C)C2=O)c1 | 0.035 |
| CN1C(=O)[C@H](NC(=O)Nc2cccc(CN)c2)N=C(c2ccccc2)c2ccccc21 | 0.719 |
| CN1C(=O)[C@H](NC(=O)Nc2ccccc2Cl)N=C(c2ccccc2)c2ccccc21 | 0.061 |
| COc1cccc(NC(=O)N[C@H]2N=C(c3ccccc3)c3ccccc3N(C)C2=O)c1 | 0.3 |
| Cc1cccc(NC(=O)N[C@@H]2N=C(c3ccccc3)c3ccccc3NC2=O)c1 | 0.04 |
| CN1C(=O)[C@@H](NC(=O)Nc2ccccc2Cl)N=C(c2ccccc2)c2ccccc21 | 0.28 |
| CN1C(=O)[C@H](NC(=O)Nc2cccc(Br)c2)N=C(c2ccccc2)c2ccccc21 | 0.0038 |
| CN1C(=O)[C@H](NC(=O)Nc2cccc(Cl)c2)N=C(c2ccccc2)c2ccccc21 | 0.0075 |
| O=C(Nc1ccc(Cl)cc1)N[C@@H]1N=C(c2ccccc2)c2ccccc2N(CC(=O)N2CCCC2)C1=O | 0.0014 |
| Cc1cccc(NC(=O)NC2N=C(c3ccccc3)c3ccccc3N(CC(=O)N3CC[N+](C)(C)CC3)C2=O)c1 (stereo not given) [1,1-Dimethyl-4-{2-[2-oxo-5-phenyl-3-(3-m-tolyl-ureido)-2,3-dihydro-benzo[e][1,4]diazepin-1-yl]-acetyl}-piperazin-1-ium; iodide] | 0.058 |
| C[C@H](NC(=O)NC1N=C(c2ccccc2)c2ccccc2N(C)C1=O)c1ccccc1 (stereo not given in full) [1-(1-Methyl-2-oxo-5-phenyl-2,3-dihydro-1H-benzo[e][1,4]diazepin-3-yl)-3-(1-phenyl-ethyl)-urea] | 11 |
| CN1C(=O)C(NC(=O)Nc2ccccc2[N+](=O)[O-])N=C(c2ccccc2)c2ccccc21 (stereo not given) [1-(1-Methyl-2-oxo-5-phenyl-2,3-dihydro-1H-benzo[e][1,4]diazepin-3-yl)-3-(2-nitro-phenyl)-urea] | 1.2 |
| CN1C(=O)C(NC(=O)Nc2cccc([N+](=O)[O-])c2)N=C(c2ccccc2)c2ccccc21 (stereo not given) [1-(1-Methyl-2-oxo-5-phenyl-2,3-dihydro-1H-benzo[e][1,4]diazepin-3-yl)-3-(3-nitro-phenyl)-urea] | 0.011 |
| CN1C(=O)C(NC(=O)Nc2cccc(C(F)(F)F)c2)N=C(c2ccccc2)c2ccccc21 (stereo not given) [1-(1-Methyl-2-oxo-5-phenyl-2,3-dihydro-1H-benzo[e][1,4]diazepin-3-yl)-3-(3-trifluoromethyl-phenyl)-urea] | 0.0038 |
| CN1C(=O)C(NC(=O)Nc2ccc([N+](=O)[O-])cc2)N=C(c2ccccc2)c2ccccc21 (stereo not given) [1-(1-Methyl-2-oxo-5-phenyl-2,3-dihydro-1H-benzo[e][1,4]diazepin-3-yl)-3-(4-nitro-phenyl)-urea] | 0.046 |

| SMILES | IC50 [µM] |
| --- | --- |
| CN1C(=O)C(NC(=O)Nc2ccc(C(F)(F)F)cc2)N=C(c2ccccc2)c2ccccc21 (stereo not given) [1-(1-Methyl-2-oxo-5-phenyl-2,3-dihydro-1H-benzo[e][1,4]diazepin-3-yl)-3-(4-trifluoromethyl-phenyl)-urea] | 0.0057 |
| CN1C(=O)C(NC(=O)Nc2cccc3ccccc23)N=C(c2ccccc2)c2ccccc21 (stereo not given) [1-(1-Methyl-2-oxo-5-phenyl-2,3-dihydro-1H-benzo[e][1,4]diazepin-3-yl)-3-naphthalen-1-yl-urea] | 0.079 |
| CN1C(=O)C(NC(=O)Nc2ccccc2)N=C(c2ccccc2)c2ccccc21 (stereo not given) [1-(1-Methyl-2-oxo-5-phenyl-2,3-dihydro-1H-benzo[e][1,4]diazepin-3-yl)-3-phenyl-urea] | 0.032 |
| CN1C(=O)C(NC(=O)Nc2ccccn2)N=C(c2ccccc2)c2ccccc21 (stereo not given) [1-(1-Methyl-2-oxo-5-phenyl-2,3-dihydro-1H-benzo[e][1,4]diazepin-3-yl)-3-pyridin-2-yl-urea] | 0.337 |
| CN1C(=O)C(NC(=O)Nc2cccnc2)N=C(c2ccccc2)c2ccccc21 (stereo not given) [1-(1-Methyl-2-oxo-5-phenyl-2,3-dihydro-1H-benzo[e][1,4]diazepin-3-yl)-3-pyridin-3-yl-urea] | 0.31 |
| CN1C(=O)C(NC(=O)Nc2ccncc2)N=C(c2ccccc2)c2ccccc21 (stereo not given) [1-(1-Methyl-2-oxo-5-phenyl-2,3-dihydro-1H-benzo[e][1,4]diazepin-3-yl)-3-pyridin-4-yl-urea] | 1.07 |
| CN1C(=O)C(NC(=O)Nc2ccc3ccccc3n2)N=C(c2ccccc2)c2ccccc21 (stereo not given) [1-(1-Methyl-2-oxo-5-phenyl-2,3-dihydro-1H-benzo[e][1,4]diazepin-3-yl)-3-quinolin-2-yl-urea] | 0.026 |
| CN1C(=O)C(NC(=O)Nc2ccc3ncccc3c2)N=C(c2ccccc2)c2ccccc21 (stereo not given) [1-(1-Methyl-2-oxo-5-phenyl-2,3-dihydro-1H-benzo[e][1,4]diazepin-3-yl)-3-quinolin-6-yl-urea] | 0.052 |
| Cc1cccc(NC(=O)NC2N=C(c3ccccc3)c3cnccc3N(C)C2=O)c1 (stereo not given) [1-(1-Methyl-2-oxo-5-phenyl-2,3-dihydro-1H-pyrido[4,3-e][1,4]diazepin-3-yl)-3-m-tolyl-urea] | 0.632 |
| Cc1cccc(NC(=O)NC2N=C(c3cccnc3)c3ccccc3N(C)C2=O)c1 (stereo not given) [1-(1-Methyl-2-oxo-5-pyridin-3-yl-2,3-dihydro-1H-benzo[e][1,4]diazepin-3-yl)-3-m-tolyl-urea] | 0.092 |
| Cc1cccc(NC(=O)NC2N=C(c3ccncc3)c3ccccc3N(C)C2=O)c1 (stereo not given) [1-(1-Methyl-2-oxo-5-pyridin-4-yl-2,3-dihydro-1H-benzo[e][1,4]diazepin-3-yl)-3-m-tolyl-urea] | 0.052 |
| CN1C(=O)C(NC(=O)Nc2ccc(Cl)cc2Cl)N=C(c2ccccc2)c2ccccc21 (stereo not given) [1-(2,4-Dichloro-phenyl)-3-(1-methyl-2-oxo-5-phenyl-2,3-dihydro-1H-benzo[e][1,4]diazepin-3-yl)-urea] | 0.22 |
| COc1ccccc1NC(=O)NC1N=C(c2ccccc2)c2ccccc2N(C)C1=O (stereo not given) [1-(2-Methoxy-phenyl)-3-(1-methyl-2-oxo-5-phenyl-2,3-dihydro-1H-benzo[e][1,4]diazepin-3-yl)-urea] | 1.2 |
| COC(=O)[C@H]1CCCN1OC(=O)CN1C(=O)C(NC(=O)Nc2cccc(OC)c2)N=C(c2ccccc2)c2ccccc21 (stereo not given in full) [1-(2-{3-[3-(3-Methoxy-phenyl)-ureido]-2-oxo-5-phenyl-2,3-dihydro-benzo[e][1,4]diazepin-1-yl}-acetoxy)-pyrrolidine-2-carboxylic acid methyl ester] | 0.0097 |
| CN1C(=O)C(NC(=O)Nc2ccc(Cl)c(Cl)c2)N=C(c2ccccc2)c2ccccc21 (stereo not given) [1-(3,4-Dichloro-phenyl)-3-(1-methyl-2-oxo-5-phenyl-2,3-dihydro-1H-benzo[e][1,4]diazepin-3-yl)-urea] | 0.067 |
| Cc1ccc(NC(=O)NC2N=C(c3ccccc3)c3ccccc3N(C)C2=O)cc1C (stereo not given) [1-(3,4-Dimethyl-phenyl)-3-(1-methyl-2-oxo-5-phenyl-2,3-dihydro-1H-benzo[e][1,4]diazepin-3-yl)-urea] | 0.022 |
| COc1cc(NC(=O)NC2N=C(c3ccccc3)c3ccccc3N(C)C2=O)cc(OC)c1 (stereo not given) [1-(3,5-Dimethoxy-phenyl)-3-(1-methyl-2-oxo-5-phenyl-2,3-dihydro-1H-benzo[e][1,4]diazepin-3-yl)-urea] | 2.3 |
| Cc1cc(C)cc(NC(=O)NC2N=C(c3ccccc3)c3ccccc3N(C)C2=O)c1 (stereo not given) [1-(3,5-Dimethyl-phenyl)-3-(1-methyl-2-oxo-5-phenyl-2,3-dihydro-1H-benzo[e][1,4]diazepin-3-yl)-urea] | 0.267 |
| CC(=O)c1cccc(NC(=O)NC2N=C(c3ccccc3)c3ccccc3N(C)C2=O)c1 (stereo not given) [1-(3-Acetyl-phenyl)-3-(1-methyl-2-oxo-5-phenyl-2,3-dihydro-1H-benzo[e][1,4]diazepin-3-yl)-urea] | 0.0048 |
| CN1C(=O)C(NC(=O)Nc2cccc(Br)c2)N=C(c2ccccc2)c2ccccc21 (stereo not given) [1-(3-Bromo-phenyl)-3-(1-methyl-2-oxo-5-phenyl-2,3-dihydro-1H-benzo[e][1,4]diazepin-3-yl)-urea] | 0.005 |
| CN1C(=O)C(NC(=O)Nc2cccc(Cl)c2)N=C(c2ccccc2)c2ccccc21 (stereo not given) [1-(3-Chloro-phenyl)-3-(1-methyl-2-oxo-5-phenyl-2,3-dihydro-1H-benzo[e][1,4]diazepin-3-yl)-urea] | 0.0098 |
| CN1C(=O)C(NC(=O)Nc2cccc(C#N)c2)N=C(c2ccccc2)c2ccccc21 (stereo not given) [1-(3-Cyano-phenyl)-3-(1-methyl-2-oxo-5-phenyl-2,3-dihydro-1H-benzo[e][1,4]diazepin-3-yl)-urea] | 0.027 |
| C#Cc1cccc(NC(=O)NC2N=C(c3ccccc3)c3ccccc3N(C)C2=O)c1 (stereo not given) [1-(3-Ethynyl-phenyl)-3-(1-methyl-2-oxo-5-phenyl-2,3-dihydro-1H-benzo[e][1,4]diazepin-3-yl)-urea] | 0.022 |
| CN1C(=O)C(NC(=O)Nc2cccc(F)c2)N=C(c2ccccc2)c2ccccc21 (stereo not given) [1-(3-Fluoro-phenyl)-3-(1-methyl-2-oxo-5-phenyl-2,3-dihydro-1H-benzo[e][1,4]diazepin-3-yl)-urea] | 0.054 |
| COc1cccc(NC(=O)NC2N=C(c3ccccc3)c3ccccc3N(C)C2=O)c1 (stereo not given) [1-(3-Methoxy-phenyl)-3-(1-methyl-2-oxo-5-phenyl-2,3-dihydro-1H-benzo[e][1,4]diazepin-3-yl)-urea] | 0.003 |
